# “And” between values parts separate entries of the source, which are not always exact repeats. Identical values can stand only once.
# What was measured:
# hA2A AR = molecular target: T1, hA2A AR (Homo sapiens, UniProt P29274); experiment: Radioligand competition binding assay at hA2A AR; conditions: 10 μM compound, [3H]ZM241385, Hela cells; for inhibition at 10 µM: read-out: Percentage Inhibition (%) at 10 μM, hA2A AR
# T1 construct: expressed in transfected cells; host or cells: Hela-A2A cell line
# T1 sequence (P29274 whole entry): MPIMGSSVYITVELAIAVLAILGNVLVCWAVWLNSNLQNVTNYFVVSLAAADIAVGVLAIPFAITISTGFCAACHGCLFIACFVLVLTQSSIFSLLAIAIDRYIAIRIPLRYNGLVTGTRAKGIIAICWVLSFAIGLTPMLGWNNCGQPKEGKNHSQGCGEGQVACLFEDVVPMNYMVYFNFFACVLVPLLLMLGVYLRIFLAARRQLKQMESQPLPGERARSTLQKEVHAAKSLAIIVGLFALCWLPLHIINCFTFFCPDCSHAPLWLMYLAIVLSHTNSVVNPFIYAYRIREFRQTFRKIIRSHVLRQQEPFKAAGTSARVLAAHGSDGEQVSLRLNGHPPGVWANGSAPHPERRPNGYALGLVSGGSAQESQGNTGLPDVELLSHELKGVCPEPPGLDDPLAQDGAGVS
# Description: (§1) All the synthesized compounds were screened with radioligand binding assays at hARs. First, the percentage of inhibition was measured by treatment of each hAR subtype with 10 μM of each compound (Table 1).
# (§2) hA1, hA2A, and hA3 AR competition binding experiments were carried out in a multiscreen GF/C 96-well plate (Millipore, Madrid, Spain) pretreated with binding buffer (Hepes 20 mM, NaCl 100 mM, MgCl2 10 mM, 2 U/mL adenosine deaminase, pH = 7.4 for hA1 AR; Tris-HCl 50 mM, EDTA 1 mM, MgCl2 10 mM, 2 U/mL adenosine deaminase, pH = 7.4 for hA2A AR; and Tris-HCl 50 mM, EDTA 1 mM, MgCl2 5 mM, 2 U/mL adenosine deaminase, pH = 7.4 for hA3 AR, respectively). In each well was incubated 5 µg of membranes from Euroscreen CHO-A1 cell line, 5µg of membranes from Hela-A2A cell line, or 30µg of membranes from Hela-A3 cell line and prepared in laboratory: 1 nM [^3H]-DPCPX (140 Ci/mmol, 1 mCi/Ml, Perkin Elmer NET974001MC) for hA1 AR; 1 nM [^3H]-ZM241385 (50 Ci/mmol, 1 mCi/mL, ARC-ITISA 0884) for hA2A AR; and 10 nM [^3H]-NECA (29.6 Ci/mmol, 1 mCi/mL, Perkin Elmer NET811250UC) for hA3 AR, respectively; and the compounds studied according to standard protocol. Non-specific binding was determined in the presence of R-PIA 10 µM (Sigma P4532) for hA1 AR; of NECA 50 µM (Sigma E2387) for hA2A AR; and of R-PIA 100 µM (Sigma P4532) for hA3 AR, respectively. The reaction mixture (Vt: 200 µL/well) was incubated at 25 °C for 60 min (hA1 AR), 30min (hA2A AR), or 180min (hA3 AR); whereafter it was filtered and washed four times (hA1 and hA2A AR) or six times (hA3 AR) with 250 μL wash buffer (Hepes 20 mM, NaCl 100 mM, MgCl2 10 mM pH = 7.4, for hA1 AR; Tris-HCl 50 mM, EDTA 1 mM, MgCl2 10 mM, pH = 7.4, for hA2A AR; and Tris-HCl 50mM pH = 7.4, for hA3 AR, respectively) before being measured in a microplate beta scintillation counter (MicrobetaTrilux, PerkinElmer, Madrid, Spain).
# hA2B AR = molecular target: T2, hA2B AR (Homo sapiens, UniProt P29275); experiment: Radioligand competition binding assay at hA2B AR; conditions: 10 μM compound; [3H]DPCPX; HEK-293 cells; read-out: Percentage Inhibition (%) at 10 μM, hA2B AR
# T2 construct: host or cells: HEK-A2B (HEK-293T-A2B) cell line
# T2 sequence (P29275 1-332): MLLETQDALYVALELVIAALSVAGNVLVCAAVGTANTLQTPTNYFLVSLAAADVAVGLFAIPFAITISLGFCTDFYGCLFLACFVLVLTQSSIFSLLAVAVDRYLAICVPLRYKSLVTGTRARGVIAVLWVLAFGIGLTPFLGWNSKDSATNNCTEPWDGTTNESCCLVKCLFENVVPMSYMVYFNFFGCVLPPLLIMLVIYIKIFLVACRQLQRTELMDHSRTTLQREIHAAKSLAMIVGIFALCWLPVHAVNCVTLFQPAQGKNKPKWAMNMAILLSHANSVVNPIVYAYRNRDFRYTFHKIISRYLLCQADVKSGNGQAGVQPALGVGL
# Description: as §1
# hA2B AR competition binding experiments were carried out in a multiscreen GF/C 96-well plate. In each well was incubated 25 µg of membranes from Euroscreen HEK-A2B cell line and prepared in laboratory, 25 nM [^3H]-DPCPX (140 Ci/mmol, 1 mCi/mL, Perkin Elmer NET974001MC) and compounds studied according to standard protocol. Non-specific binding was determined in the presence of NECA 1000 µM (Sigma E2397). The reaction mixture (Vt: 250 µL/well) was incubated at 25°C for 30 min, 200 µL was transferred to GF/C 96-well plate (Millipore, Madrid, Spain), and pretreated with binding buffer (Tris-HCl 50 Mm, EDTA 1 mM, MgCl2 5 mM, Bacitracin […], adenosine deaminase 2 U/Ml, pH = 6.5). It was then filtered and washed four times with 250 μL wash buffer (Tris-HCl 50 mM, EDTA 1 mM, MgCl2 5 mM, pH = 6.5), before being measured in a microplate beta scintillation counter (MicrobetaTrilux, PerkinElmer, Madrid, Spain).
# hA3 AR = molecular target: T3, hA3 AR (Homo sapiens, UniProt P0DMS8); experiment: Radioligand competition binding assay at hA3 AR; set-up: expressed in transfected cells; host or cells: Hela-A3 cell line; conditions: for Percentage Inhibition (%) at 10 μM, hA3 AR / inhibition at 10 µM: 10 μM compound; for Percentage Inhibition (%) at 10 μM, hA3 AR / inhibition at 10 µM / Ki: [3H]NECA; for inhibition at 10 µM: read-out: Percentage Inhibition (%) at 10 μM, hA3 AR
# T3 sequence (P0DMS8 1-318): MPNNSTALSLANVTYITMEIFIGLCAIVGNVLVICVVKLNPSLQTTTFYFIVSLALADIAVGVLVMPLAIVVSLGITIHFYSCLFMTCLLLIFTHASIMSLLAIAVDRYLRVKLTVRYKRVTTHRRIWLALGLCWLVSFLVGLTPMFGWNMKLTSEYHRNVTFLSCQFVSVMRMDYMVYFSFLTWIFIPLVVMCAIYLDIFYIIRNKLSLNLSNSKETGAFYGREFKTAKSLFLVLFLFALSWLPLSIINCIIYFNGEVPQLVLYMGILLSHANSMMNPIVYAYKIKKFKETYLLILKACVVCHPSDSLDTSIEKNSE
# Description: as §1, §2
# hA1 AR = molecular target: T4, hA1 AR (Homo sapiens, UniProt P30542); experiment: Radioligand competition binding assay at hA1 AR; conditions: for Percentage Inhibition (%) at 10 μM, hA1 AR / inhibition at 10 µM: 10 μM compound; for Percentage Inhibition (%) at 10 μM, hA1 AR / inhibition at 10 µM / Ki: [3H]DPCPX, CHO cells; for inhibition at 10 µM: read-out: Percentage Inhibition (%) at 10 μM, hA1 AR; for Selectivity (hA1 AR:hA3 AR): ratio of Ki hA1 AR to Ki hA3 AR
# T4 construct: host or cells: CHO-A1 (CHO cells expressing hA1 AR)
# T4 sequence (P30542 1-326): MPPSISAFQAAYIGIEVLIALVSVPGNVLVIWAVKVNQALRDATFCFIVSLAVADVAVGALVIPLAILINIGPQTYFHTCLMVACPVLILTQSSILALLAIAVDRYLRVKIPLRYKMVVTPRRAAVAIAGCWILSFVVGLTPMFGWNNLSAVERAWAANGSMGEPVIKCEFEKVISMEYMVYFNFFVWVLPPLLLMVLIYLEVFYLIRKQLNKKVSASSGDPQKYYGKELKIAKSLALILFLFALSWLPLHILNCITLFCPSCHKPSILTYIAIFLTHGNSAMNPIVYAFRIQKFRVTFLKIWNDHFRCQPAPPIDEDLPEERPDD
# Description: as §1, §2
# [1] = compared with hydroxyl compound 9a
SMILES,"Percentage Inhibition (%) at 10 μM, hA2A AR (hA2A AR; 10 µM) [%]",inhibition at 10 µM (hA2A AR) [%],inhibition at 10 µM (hA2B AR) [%],"Percentage Inhibition (%) at 10 μM, hA3 AR (hA3 AR) [%]",inhibition at 10 µM (hA3 AR) [%],Ki (hA3 AR) [nM],"Percentage Inhibition (%) at 10 μM, hA1 AR (hA1 AR) [%]",inhibition at 10 µM (hA1 AR) [%],Ki (hA1 AR) [nM],Selectivity (hA1 AR:hA3 AR) (hA1 AR),Improvement of binding affinity at hA3 AR (hA3 AR; [1]) [fold],Improvement of binding affinity at hA1 AR (hA1 AR; [1])
"COc1cc(Nc2nc(N)nc(-c3ccc(O)cc3)n2)ccc1Cl [Compound 9c, 4-{4-amino-6-[(4-chloro-3-methoxyphenyl)amino]-1,3,5-triazin-2-yl}phenol]",94 ± 3,> 95,90 ± 1,95 ± 1,> 95,661,99 ± 1,> 95,57.9,0.0875,–,–
"COc1ccc(-c2nc(N)nc(Nc3ccc(OC)c(F)c3)n2)cc1 [Compound 11a, N^2-(3-fluoro-4-methoxyphenyl)-6-(4-methoxyphenyl)-1,3,5-triazine-2,4-diamine]",–,83 ± 1,65 ± 2,97 ± 1,> 90,13.3,95 ± 1,> 90,78.1,5.87,~5,about 2 fold
"COc1ccc(Nc2nc(N)nc(-c3ccc(F)cc3)n2)cc1F [Compound 11b, N^2-(3-fluoro-4-methoxyphenyl)-6-(4-fluorophenyl)-1,3,5-triazine-2,4-diamine]",–,49 ± 1,56 ± 1,95 ± 4,> 90,56.6,98 ± 1,> 90,98.3,1.7 and 1.74,–,–
